Reference: patent publication US5292751A, “5,7-dihydroxy-2-methyl-8-(4-(3-hydroxy-1-(1-propyl))pip eridinyl)-4H-1-benzopyran-4-one, its preparation and its use” (priority 1991, dated 1994)
Where two headings read alike, the source gives them in different places.

How the values were obtained:
[1] = in vivo; conditions: po, rat
[2] = format: in vivo; conditions: for Therapeutic index (LD50 ED50): LD50 over carrageenin ED50
Description: 1. Acute inflammation model:
Systemic anti-inflammatory action on carrageenin-induced paw oedema in rats.
Male Charles Foster rats (120-150 g) were fasted for 18 hours, with water ad libitum. The test compound suspended in Tween^R 80 and 0.5% C.M.C. was administered orally. The control group received Tween 80 and 0.5% C.M.C. 0.05 ml of 0.5% carrageenin suspension was injected subcutaneously into the plantar region of the left hind paw. Using a Maclab differential volume meter, the paw volume was determined before the carrageenin injection and 3 and 6 hours after the injection. The percentage decrease in paw volume was calculated by the following equation: [formula] The ED50 value was calculated from the dose/response curve. Six animals were used for each group.

[3] = in vivo; format: in vivo; conditions: for potentiation of the secondary arthritic response: p.o. per day
Description: 2. Adjuvant induced arthritis (developing) in Rats
Female Charles Foster rats weighing 150-180 g were sorted into groups (10 rats/group). Each animal received 10 μl of 1% suspension of mycobacterium tuberculli in paraffin oil, intradermally, at the base of the tail. Drug treatment was instituted on the day of the induction of arthritis and continued for 21 days. The body weight of each rat was noted prior to the adjuvant suspension injection and subsequently all throughout for 21 days. Volumes of both hind paws were recorded on the day of injection and subsequently from 7 days onwards till the end of the experiment.

[4] = rat, p.o., carrageenin paw oedema, from dose/response curve

SMILES | LD50 [1] | therapeutic index, comparison in words ([2]; compared with compounds B and C) | ED50, mg/kg p.o. [2, 4] | Therapeutic index (LD50 ED50) ([2]; rat, p.o.) | deaths or toxic side effects ([3]; 30 mg/kg, p.o./day, 21 days) | inhibition of adjuvant arthritis ([3]; 1.25, 2.5, 5 and 10 mg/kg/day, p.o., 21 days) | ED50, mg/kg p.o. ([2]; po) | potentiation of the secondary arthritic response ([3]; 3 mg/kg) | potentiation of the secondary arthritic response ([3]; 9 mg/kg) | symptoms of cytotoxicity ([3]; 18 mg/kg, p.o./day) | inhibition of adjuvant arthritis ([3]; 18 mg/kg, p.o./day, may be due to toxicity) | response in adjuvant arthritis ([3]; 3, 9, 18 and 27 mg/kg/day p.o., 21 days) | therapeutic range ([3]; p.o., daily dosing) | inhibition of adjuvant arthritis ([3]; 0.1, 1 and 10 mg/kg, p.o., 21 days) | mortality ([3]; rat, in vivo, po, 10 mg/kg/day, 10 mg/kg, p.o./day, between 9th and 11th day of administration)
CCCN1CC[C@H](c2c(O)cc(O)c3c(=O)cc(C)oc23)[C@H](O)C1 (single isomer, unassigned) [Compound A] | 650 mg/kg | favourable therapeutic index over compounds B and C | 20.0 mg/kg | 32.5 | No deaths or toxic side effects were observed | dose-dependent and significant inhibition | – | – | – | – | – | – | – | – | –
Cc1cc(=O)c2c(O)cc(O)c(C3CCN(C)CC3O)c2o1 (stereo not drawn) [Compound B] | – | – | – | – | – | – | 9.0 mg/kg | 58.6% | 64.9% | weight loss and severe diarrhoea | significant inhibition | biphasic response | narrow therapeutic range | – | –
CN1CCC(c2c(O)cc(O)c3c(=O)cc(-c4ccccc4)oc23)C(O)C1 (stereo not drawn) [Compound C] | 27 mg/kg | – | 1.3 mg/kg | 20.76 | – | – | – | – | – | – | – | – | – | No inhibition of adjuvant arthritis was seen at any of the doses tested | 50%
